Results published in patent US20120157396A1, “PYRAZINAMIDE FOR IMMUNOSTIMULATION AND THE TREATMENT OF LEISHMANIASES” (priority 2009, published 2012).

How the values were obtained:
[1] = system: L. major amastigotes; assay: L. major amastigotes within J774 cells, parasite survival; type: cell-based
Procedure: To distinguish between leishmaniostatic and leishmanicidal effects, a time course survival curve was generated for J774 cultures infected with L. major.
Amastigotes were generated by infecting J774 murine macrophages. Infections were carried after seeding cells in 8-well Labtek chambers (Thermo Physic Scientific, Rochester N.Y.) at a concentration of 5×10^4 cells/well. To avoid multiplication, cells were incubated with mitomycin C at a concentration of 0.8 μg/ml for 16 h. Infective-stage promastigotes (metacyclics) of L. major were isolated from stationary cultures (4-5 day-old) by Ficoll enrichment, added to macrophage cultures (5 promastigotes: 1 cell) and kept overnight at 37° C. in the presence of 5% CO2 and DMEM with 10% FCS. Sixteen hours later, non-internalized promastigotes were then washed and replaced by culture medium containing the drug. Forty-eight hours later, wells were detached from the slides, stained with Diff-Quick (Dade Behring, Newark, Del.) and counted under light microscope. Parasite burden was determined by observation under light microscopy (1000×) as the number of amastigotes per one hundred J774 cells. Percentage of survival of amastigotes and MIC50 were calculated as above.

[2] = system: uninfected J774 cells; type: cell-based
Procedure: The potential cytotoxicity of PZA toward the mammalian cell line was determined by co-incubation of PZA with uninfected J774 cells for 48 h (10^4 cells/well) in 96-well culture plates. […] At 200 μg/ml, the compound started to show signs of toxicity, resulting in mortality of 25% of the cell monolayer. […] The control drug amphotericin B caused 5% mortality of the cell monolayer at the concentration tested (1 μg/ml).
J774 cell viability following incubation with PZA was also determined. Cells were seeded onto 8-well Labtek chambers as above and incubated with different concentrations of PZA (up to 1 mg/ml) for 48 h, stained with Diff-Quick and counted under light microscope. The percentage of viable cells was determined after quantifying the number of cells present per field (in 25 fields, ca. 500 cells). Percentage of survival and MIC50 were calculated as above.

[3] = system: J774 cells; assay: Cytokine (ELISA) and nitric oxide (Griess test) production in J774 cells; type: cell-based, murine; conditions: amphotericin B at the doses tested (0.1-1 μg/ml)
Procedure: The ability of J774 cells to produce cytokines in response to infection and/or treatment was also determined. Cells were infected, treated or activated as described above. The amount of the proinflammatory cytokines IL-12 and TNF-α (implicated in Thl response and parasite killing), as well as the repressive cytokine IL-10, was determined by ELISA in the culture supernatants. The level of nitric oxide was also determined in the same supernatants. PZA treatment alone increased cytokine production, especially IL-12 and TNF-α and NO release. […] Finally, to test the specificity of the immune activation by PZA, we determined the effect that amphotericin B treatment had on activation and cytokine expression by J774 cells.
J774 cells or bone marrow-derived cells were seeded onto 24-well plates at a concentration of 5×10^5 cells/ml. Twenty-four hours later, PZA was added to the wells at different concentrations in the absence or presence of L. major (1:5 parasite ratio). In some experiments, J774 cells were treated with amphotericin B (0.1, 0.5, or 1 μg/ml). Two control groups were also included in this experiment: a positive control of activation consisting in a group of uninfected cells treated with 100 ng/ml LPS and 10 IU IFN-γ as a positive control of activation, and a negative control of activation, consisting in uninfected, untreated cells. Cell cultures were maintained overnight, and then cultured for an additional 6 h with brefeldin A (10 μg/ml), harvested by scraping and fixed in 2% paraformaldehyde. Prior to staining, cells were incubated with an anti-Fc III/II receptor and 10% normal mouse serum (NMS) in PBS containing 0.1% BSA, 0.01% NaN3. Cells were permeabilized with saponin and stained for the surface markers CD80 (clone 16-10A1), CD86 (clone GL1), MHCI (clone 28-14-8), MHCII (clone M5/114.15.2) and for the cytokines IL-12p40/p70 (clone C17.8) and IL-10 (clone JESS-16E3). Incubations were carried out for 30 min on ice. All antibodies were purchased from BD Biosciences or eBioscience. For each sample, at least 50,000 cells were analyzed. The data were collected and analyzed using CELLQuest software and a FACScalibur flow cytometer (Becton Dickinson, San Jose, Calif.).

[4] = system: L. major promastigotes; assay: L. major promastigote drug treatment, parasite survival after 48 h; type: cell-based
Procedure: The effect of PZA was first investigated with promastigotes of L. major. PZA was diluted in medium and added to cultures. After 48 h, parasite multiplication was determined by counting parasites in culture. […] Incubation of L. major with 1 μg/ml amphotericin B (as a positive control) caused 100% mortality of promastigotes and 90% of amastigotes.
Mid-log phase (day 3 of culture) L. major promastigotes were employed. Parasite concentration was adjusted to 10^6 promastigotes/ml and seeded into 96-well plates in a volume of 100 μl (final concentration, 10^5 promastigotes/well). PZA was tested in triplicate in a concentration gradient from 1,000-0.5 μg/ml and added to the wells containing the parasite in a volume of 100 μl. A negative control was included with three wells containing only parasites and medium. The positive control consisted of amphotericin B (1 μg/ml). This concentration was previously employed by us because this concentration is equivalent to drug concentrations achieved in human plasma. After 48 h of incubation at 26° C., 10 μL of each well was diluted in 90 μL of the vital colorant (trypan blue in PBS) and the parasites were quantified in a Neubauer chamber. Data was normalized as percentage of survival compared to untreated controls. The Lethal Dose 50 (LD50) was extrapolated from the graph as the concentration of the products that inhibited the parasitic growth at 50% of the values of the negative control.

Compound | MIC50 reduced relative to PZA ([1]; L. major amastigotes within J774 cells) [fold] | MIC50 for PZA analogs ([1]; L. major amastigotes within J774 cells (Table Ia)) [μM] | mortality of the cell monolayer ([2]; amphotericin B 1 μg/ml) [%] | percentage of survival compared to untreated control ([2]; uninfected J774 cells, Amphotericin B 1 μg/ml, 48 h) [%] | activation and cytokine expression of J774 cells [3] | mortality of amastigotes ([1]; 1 μg/ml amphotericin B) [%] | percentage of survival compared to untreated control ([1]; amastigote in J774, Amphotericin B 1 μg/ml, 48 h) [%] | elimination of parasites from macrophage cultures ([1]; amphotericin B 0.1 μg/ml, infected cells) | mortality of promastigotes ([4]; 1 μg/ml amphotericin B) [%] | percentage of survival compared to untreated control ([4]; promastigote, Amphotericin B 1 μg/ml, 48 h) [%]
NC(=O)c1cnc(F)cn1 [5-Fl PZA] | 100 | 0.08 |  |  |  |  |  |  |  | 
C[C@@H]1[C@H](O)[C@@H](C)/C=C/C=C/C=C/C=C/C=C/C=C/C=C/[C@H](O[C@@H]2O[C@H](C)[C@@H](O)[C@H](N)[C@@H]2O)C[C@@H]2O[C@](O)(C[C@@H](O)C[C@@H](O)[C@H](O)CC[C@@H](O)C[C@@H](O)CC(=O)O[C@H]1C)C[C@H](O)[C@H]2C(=O)O [Amphotericin B, amphotericin B] |  |  | 5 | 95 ± 16 | did not result in activation | 90 | 10 ± 5 | total elimination of parasites | 100 | 0
